Data on three compounds can be found in patent US6936585B2, “Corticotropin releasing factor 2 receptor agonists” (priority 2002, dated 2005).

Assay [1] deals with T1, CRF1R (Homo sapiens, UniProt P34998).
T1 sequence (P34998 24-415): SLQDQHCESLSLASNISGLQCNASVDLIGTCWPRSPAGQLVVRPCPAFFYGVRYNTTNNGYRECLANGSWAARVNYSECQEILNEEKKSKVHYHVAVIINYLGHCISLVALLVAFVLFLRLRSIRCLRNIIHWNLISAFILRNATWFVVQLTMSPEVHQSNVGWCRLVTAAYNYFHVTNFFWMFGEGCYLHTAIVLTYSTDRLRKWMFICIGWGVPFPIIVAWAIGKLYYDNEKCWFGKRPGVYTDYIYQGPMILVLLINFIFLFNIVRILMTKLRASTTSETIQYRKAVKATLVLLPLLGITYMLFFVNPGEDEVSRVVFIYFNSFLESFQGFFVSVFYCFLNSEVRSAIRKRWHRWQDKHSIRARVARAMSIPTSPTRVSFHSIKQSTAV
The assay is described as follows: CRF1R agonist activation (EC50 / Emax), called comparative CRF binding. The assay is classed as cell-based. As to conditions: for Emax: read-out: CRF1R Emax. The procedure, abridged: (§1)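 Read-out is Gαs-driven cAMP induction, quantified directly in lysates or through CRE-reporter gene expression, after treating CRF1R- or CRF2R-expressing cells with peptide. Vehicle-treated cells serve as the comparison.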

For assay [2], the target named is T2, CRF2R (Homo sapiens, UniProt Q13324).
T2 sequence (Q13324 1-411): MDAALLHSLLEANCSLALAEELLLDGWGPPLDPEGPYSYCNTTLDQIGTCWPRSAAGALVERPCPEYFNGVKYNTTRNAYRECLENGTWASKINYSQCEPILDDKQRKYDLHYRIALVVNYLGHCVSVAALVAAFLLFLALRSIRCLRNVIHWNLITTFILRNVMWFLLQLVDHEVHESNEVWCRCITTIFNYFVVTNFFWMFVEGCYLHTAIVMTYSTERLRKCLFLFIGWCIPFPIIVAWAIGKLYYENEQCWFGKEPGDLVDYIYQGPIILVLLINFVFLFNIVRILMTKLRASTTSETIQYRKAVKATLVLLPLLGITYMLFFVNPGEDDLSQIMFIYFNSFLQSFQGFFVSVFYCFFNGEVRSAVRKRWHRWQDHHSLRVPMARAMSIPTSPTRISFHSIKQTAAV
Nature of the assay: CRF2R agonist activation (EC50 / Emax), called comparative CRF binding. The assay is classed as cell-based. The note with it: for Emax: read-out: CRF2R Emax. The procedure, abridged: as §1

Peptide text beside a SMILES is read from it. Where only a bound is given, the exact number is not on record here.

Broadly, the EC50 is the concentration needed to bring the measured effect to its halfway point. What is called Emax is the maximal effect, on the per cent scale that the assay sets. As for `CC[C@H](C)[C@H](N)C(=O)N[C@H](C(=O)N[C@@H](CC(C)C)C(=O)N[C@@H](CO)C(=O)N[C@@H](CC(C)C)C(=O)N[C@@H](CC(=O)O)C(=O)N[C@H](C(=O)N1CCC[C@H]1C(=O)N[C@H](C(=O)NCC(=O)N[C@@H](CC(C)C)C(=O)N[C@@H](CC(C)C)C(=O)N[C@@H](CCC(N)=O)C(=O)N[C@H](C(=O)N[C@@H](CC(C)C)C(=O)N[C@@H](CC(C)C)C(=O)N[C@@H](CCC(=O)O)C(=O)N[C@@H](CCC(N)=O)C(=O)N[C@@H](CCCNC(=N)N)C(=O)N[C@@H](CCCNC(=N)N)C(=O)N[C@@H](C)C(=O)N[C@@H](C)C(=O)N[C@@H](CCCNC(=N)N)C(=O)N[C@@H](CCC(=O)O)C(=O)N[C@@H](CCC(N)=O)C(=O)N[C@@H](C)C(=O)N[C@H](C(=O)N[C@H](C(=O)N[C@@H](CC(N)=O)C(=O)N[C@@H](C)C(=O)N[C@@H](CCCNC(=N)N)C(=O)N[C@H](C(=O)N[C@@H](CC(C)C)C(=O)N[C@@H](C)C(=O)N[C@@H](CCCNC(=N)N)C(=O)N[C@H](C(N)=O)C(C)C)[C@@H](C)CC)[C@@H](C)O)[C@@H](C)O)[C@@H](C)CC)[C@@H](C)CC)C(C)C)C(C)C` [compound 133] (H-IVLSLDVPIGLLQILLEQRRAAREQATTNARILARV-NH2; N-terminus assumed), the figures for the EC50 in assay [1] (read-out: CRF1R EC50) and in assay [2] (read-out: CRF2R EC50) were over 100 nM and 12.2 nM, respectively. The Emax in assay [1] amounted to 4%; in assay [2] it was 88%.
Turning to `CC[C@H](C)[C@H](N)C(=O)N[C@H](C(=O)N[C@@H](CC(C)C)C(=O)N[C@@H](CO)C(=O)N[C@@H](CC(C)C)C(=O)N[C@@H](CC(=O)O)C(=O)N[C@H](C(=O)N1CCC[C@H]1C(=O)N[C@H](C(=O)NCC(=O)N[C@@H](CC(C)C)C(=O)N[C@@H](CC(C)C)C(=O)N[C@@H](CCC(N)=O)C(=O)N[C@H](C(=O)N[C@@H](CC(C)C)C(=O)N[C@@H](CC(C)C)C(=O)N[C@@H](CCC(=O)O)C(=O)N[C@@H](CCC(N)=O)C(=O)N[C@@H](C)C(=O)N[C@@H](C)C(=O)N[C@@H](C)C(=O)N[C@@H](C)C(=O)N[C@@H](CCCNC(=N)N)C(=O)N[C@@H](CCC(=O)O)C(=O)N[C@@H](CCC(N)=O)C(=O)N[C@@H](C)C(=O)N[C@H](C(=O)N[C@H](C(=O)N[C@@H](CC(N)=O)C(=O)N[C@@H](C)C(=O)N[C@@H](CCCNC(=N)N)C(=O)N[C@H](C(=O)N[C@@H](CC(C)C)C(=O)N[C@@H](C)C(=O)N[C@@H](CCCNC(=N)N)C(=O)N[C@H](C(N)=O)C(C)C)[C@@H](C)CC)[C@@H](C)O)[C@@H](C)O)[C@@H](C)CC)[C@@H](C)CC)C(C)C)C(C)C` [compound 134] (H-IVLSLDVPIGLLQILLEQAAAAREQATTNARILARV-NH2), the Emax in assay [1] came out at 7%; in assay [2], 19%.
Taken in the same sequence, the figures for `CC[C@H](C)[C@H](N)C(=O)N[C@H](C(=O)N[C@@H](CC(C)C)C(=O)N[C@@H](CO)C(=O)N[C@@H](CC(C)C)C(=O)N[C@@H](CC(=O)O)C(=O)N[C@H](C(=O)N1CCC[C@H]1C(=O)N[C@H](C(=O)NCC(=O)N[C@@H](CC(C)C)C(=O)N[C@@H](CC(C)C)C(=O)N[C@@H](CCC(N)=O)C(=O)N[C@H](C(=O)N[C@@H](CC(C)C)C(=O)N[C@@H](CC(C)C)C(=O)N[C@@H](CCC(=O)O)C(=O)N[C@@H](CCC(N)=O)C(=O)N[C@@H](C)C(=O)N[C@@H](C)C(=O)N[C@@H](CCCNC(=N)N)C(=O)N[C@@H](C)C(=O)N[C@@H](C)C(=O)N[C@@H](CCCNC(=N)N)C(=O)N[C@@H](CCC(=O)O)C(=O)N[C@@H](CCC(N)=O)C(=O)N[C@@H](C)C(=O)N[C@H](C(=O)N[C@H](C(=O)N[C@@H](CC(N)=O)C(=O)N[C@@H](C)C(=O)N[C@@H](CCCNC(=N)N)C(=O)N[C@H](C(=O)N[C@@H](CC(C)C)C(=O)N[C@@H](C)C(=O)N[C@@H](CCCNC(=N)N)C(=O)N[C@H](C(N)=O)C(C)C)[C@@H](C)CC)[C@@H](C)O)[C@@H](C)O)[C@@H](C)CC)[C@@H](C)CC)C(C)C)C(C)C` [compound 135] (H-IVLSLDVPIGLLQILLEQAARAAREQATTNARILARV-NH2) were 6% and 76%.
